According to paper PMC7232172, “APETx-Like Peptides from the Sea Anemone Heteractis crispa, Diverse in Their Effect on ASIC1a and ASIC3 Ion Channels” (Toxins, 2020):
Where two headings read alike, the source gives them in different places. Bridges are numbered along the chain shown (N, C = ends). Where no end group is shown, it is not given here.

Key:
KV3.4 = system: KV3.4; design: method as in PMID 16177043; settings: cited from earlier work
NaV1.7 = system: NaV1.7; design: method as in PMID 22442564; settings: TTX-sensitive NaV; read-out: EC50, NaV1.7 potentiation; cited from earlier work
KV3.1 = system: KV3.1; design: method as in PMID 9506974; settings: cited from earlier work
TTX-resistant NaV = system: TTX-resistant NaV; design: method as in PMID 22442564; settings: cited from earlier work
ASIC1a = settings: cited from earlier work; for effect on ASIC1a gating state: desensitization: ref 21, closed state: ref 13, 20, 22
Text: Animal toxins produced by spiders, snakes, and sea anemones are considered molecular instruments for the study of ASICs gating and promising drug precursors. […] Peptides from spiders and snakes inhibit mostly mammalian ASIC1a channels. […] Peptides Hcr 1b-3 and Hcr 1b-4, electrophysiologically examined in this study, are the closest homologues of Hcr 1b-1 and Hcr 1b-2 (78%–97% of identity) as well as APETx2 (46%–49% of identity) that are attributed to β-defensin-like peptides. […] (Table 2). Despite the absence of the crucial basic residue Arg17 [31] in the sequence ...

rat ASIC1a channel = biological target: T1, rat ASIC1a channel (Rattus norvegicus, UniProt P55926); experiment: Two-electrode voltage clamp, homomeric ASIC1a currents in Xenopus laevis oocytes; type: cell-based; settings: for IC50: X. laevis oocytes, pH drop 7.8 to 5.5 (legend of Figure 4: from 7.4), peptide applied up to 15 s before, logistic fit, read-out: IC50, inhibition of rASIC1a current; for IC50 / A (response value at maximal inhibition, % of control), rASIC1a: mean ± SD, 5 cells; for A (response value at maximal inhibition, % of control), rASIC1a: fit parameter, pH drop to 5.5
T1 construct: expressed in transfected cells; host or cells: Xenopus laevis oocytes (cRNA injection)
T1 sequence (P55926 1-526): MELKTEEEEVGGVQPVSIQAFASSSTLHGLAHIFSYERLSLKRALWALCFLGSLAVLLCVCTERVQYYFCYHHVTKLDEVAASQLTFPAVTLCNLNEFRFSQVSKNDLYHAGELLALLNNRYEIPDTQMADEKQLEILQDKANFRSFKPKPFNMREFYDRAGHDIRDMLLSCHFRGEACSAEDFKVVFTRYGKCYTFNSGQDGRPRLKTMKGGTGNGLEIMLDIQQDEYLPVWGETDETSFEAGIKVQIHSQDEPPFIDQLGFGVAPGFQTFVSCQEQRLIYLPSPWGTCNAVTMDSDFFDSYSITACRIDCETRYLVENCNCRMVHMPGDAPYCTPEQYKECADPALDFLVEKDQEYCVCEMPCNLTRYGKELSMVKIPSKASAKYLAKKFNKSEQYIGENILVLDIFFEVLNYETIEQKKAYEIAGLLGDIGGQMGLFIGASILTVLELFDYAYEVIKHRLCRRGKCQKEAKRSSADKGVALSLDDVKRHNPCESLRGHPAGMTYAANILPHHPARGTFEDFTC
Procedure: (§1) The study of the pharmacological profile of the Hcr 1b-3 and Hcr 1b-4 peptides from H. crispa was carried out on two major ion channel subtypes, ASIC1a and ASIC3. Homomeric ASIC1a channels expressed in X. laevis oocytes were activated by a rapid pH drop from 7.8 to 5.5 in 15 s after peptide application. To analyze the effect of HcrTxs on the transient component of the ASIC3 current, the channels were activated by rapid extracellular acidification from pH 7.8 to 4.0, but effects on the sustained ASIC3 current were not studied. The inhibitory activity of three class 1b sea anemone toxins, APETx2, Hcr 1b-1, and Hcr 1b-2, towards ASICs was previously assayed in electrophysiological experiments (Table 2). In addition, we previously reported that the Hcr 1b-3 and Hcr 1b-4 peptides inhibited about 54% and 80% of the ASIC1a current, respectively.
(§2) Animal care and animal experiments were performed following the protocol approved by the Animal Care and Use Committee of the Shemyakin-Ovchinnikov Institute of Bioorganic Chemistry, Approval Code: 267/2018; Approval Date: 2 October 2018. RAS. Rat ASIC1a and ASIC3 channels were expressed in Xenopus laevis oocytes after injection of 2.5–10 ng of cRNA, as previously described. After injection oocytes were kept for 2–3 days at 19 °C and then up to 5 days at the temperature of 15–16 °C in sterile ND96 medium (96 mM NaCl, 2 mM KCl, 1.8 mM CaCl2, 1 mM MgCl2, 5 mM HEPES titrated to pH 7.4 with NaOH supplemented with 50 μg/mL of gentamycin). Two-electrode voltage clamp recordings were performed using GeneClamp 500 amplifier (Axon Instruments, Foster City, CA, USA). The data were filtered at 100 Hz and digitized at 1000 Hz by an AD converter L780 (LCard, Moscow, Russia) using in-house software. The solutions were applied to a cell chamber (volume 75 μL). The laminar flow of an external solution of ND96 (pH 7.8) was used at a rate of 1 mL/min. ASIC1a and ASIC3 were activated by a short pH drop from 7.8 to 5.5 or to 4.0 (10 mM MES or 10 mM acetic acid was used as the buffer solution, respectively) in supplementary 0.1% BSA solution. Peptides were applied for up to 15 s before the activation impulse. A value of currents inhibition was calculated as the ratio of the peak current amplitude when the peptide was applied to the average amplitude of the control peak currents before and after the peptide application and expressed as a percentage. To construct the concentration–response curves, a logistic equation was the following: y = ((1 – A)/(1 + ([C]/IC50) nH)) + A; where y is the relative value of current inhibition; C is the peptide concentration; IC50 is the half maximal inhibitory concentration; nH is the Hill coefficient; A is the response value at maximal inhibition (% of control). Calculations were carried out using software Origin 7.0. The data are presented as mean ± SD.

rat ASIC3 channel [1] = biological target: T2, rat ASIC3 channel (Rattus norvegicus, UniProt O35240); experiment: Two-electrode voltage clamp, homomeric ASIC3 transient currents in Xenopus laevis oocytes; type: cell-based; settings: mean ± SD, 5 cells
T2 construct: expressed in transfected cells; host or cells: Xenopus laevis oocytes (cRNA injection)
T2 sequence (O35240 1-533): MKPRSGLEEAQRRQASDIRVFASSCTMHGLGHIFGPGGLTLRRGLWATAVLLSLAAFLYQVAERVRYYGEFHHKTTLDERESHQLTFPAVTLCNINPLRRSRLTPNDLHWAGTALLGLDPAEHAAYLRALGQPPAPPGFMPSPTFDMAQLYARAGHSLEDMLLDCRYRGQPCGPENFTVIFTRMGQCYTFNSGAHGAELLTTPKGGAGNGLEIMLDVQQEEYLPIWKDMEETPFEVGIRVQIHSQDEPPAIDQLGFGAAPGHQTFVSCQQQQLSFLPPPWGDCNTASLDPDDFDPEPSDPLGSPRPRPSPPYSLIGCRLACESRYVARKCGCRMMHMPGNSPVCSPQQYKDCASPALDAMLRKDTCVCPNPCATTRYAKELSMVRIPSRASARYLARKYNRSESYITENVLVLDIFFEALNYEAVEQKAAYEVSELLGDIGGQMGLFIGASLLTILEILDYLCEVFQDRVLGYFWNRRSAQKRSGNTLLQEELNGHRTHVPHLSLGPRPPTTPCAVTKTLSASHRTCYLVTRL
Procedure: as §1
as §2, with “The data are presented as mean ± SD.” left out

ASIC1b = settings: cited from earlier work
Text: (§3) It is noteworthy that to increase the current through the ASICs it takes an order of magnitude higher concentration of toxins than to inhibit it. […] No ASIC3 ...

[2] = system: models of cerebral ischemia, retinal stroke, optic nerve crush, and Parkinson’s disease; settings: cited from earlier work
Text: Animal toxins produced by spiders, snakes, and sea anemones are considered molecular instruments for the study of ASICs gating and promising drug precursors. […] Peptides from spiders and snakes inhibit mostly mammalian ASIC1a channels. Two of ASIC1a inhibitors from spiders, ...

hERG = system: hERG; design: method as in 2 sources, ref 31 = [31]; PMID 25337890; doi:10.1021/jm501400p; 31. Jensen J.E. Cristofori-Armstrong B. Anangi R. Rosengren K.J. Lau C.H.Y. Mobli M. Brust A. Alewood P.F. King G.F. Rash L.D. Understanding the molecular basis of toxin promiscuity: The analgesic sea ||| ref 33 = [33]; PMID 12815161; doi:10.1124/mol.64.1.59; 33. Diochot S. APETx1, a new toxin from the sea anemone anthopleura elegantissima, blocks voltage-gated human ether-a-go-go-related gene potassium channels Mol. Pharmacol. 2003 64 59 69 10.1124/mol.64; settings: cited from earlier work
NaV1.2 = system: NaV1.2; design: method as in PMID 22972919; settings: cited from earlier work
ASIC2a = settings: cited from earlier work
Text: as §3

NaV1.8 = system: NaV1.8; design: method as in PMID 22972919; settings: cited from earlier work
rat ASIC3 channel [3] = biological target: T2, rat ASIC3 channel; settings: rat ASIC3, X. laevis oocytes according to footnote of Table 2; read-out: IC50, inhibition of ASIC3 (APETx2); cited from earlier work
Text: (§4) Table 2 Electrophysiological activity of sea anemone toxins of structural class 1b on homomeric acid-sensing ion channels (ASICs). | column: ASIC3

human ASIC3 = settings: simian-kidney-derived COS-7 cells; read-out: IC50, inhibition of human ASIC3; cited from earlier work
Text: as §4

[4] = cited from earlier work
Text: Similarly to other APETx-like peptides, HcrTxs form four-stranded antiparallel β-sheets cross-linked by three disulfide bridges (C1–C5, C2–C4, C3–C6). Conforming to the obtained models, the short α-helix (22-24 aa) of HcrTxs localized within the flexible region between the second and third strands (Figure 3a). Hcr 1b-2, -3, -4, and APETx2 are very basic peptides (theoretical pI being of 9.53, 9.23, 9.26, and 9.33, respectively). Basic-aromatic clusters play an important role in the formation of complexes between the ASIC channel and peptide toxins PcTx1, mambalgin- ...

ASIC3 = settings: cited from earlier work

Substance: BDS-I: toxin BDS-I from sea anemone A. sulcata (AAPCFCSGKPGRGDLWILRGTCPGGYGYTSNCYKWPNICCYPH; UniProt P11494 1-43, looked up)
- IC50 (KV3.4): 220 nM
- EC50 (NaV1.7): ~3 nM
- IC50 (KV3.1): 47 nM
- effect on TTX-resistant NaV (TTX-resistant NaV): weakly inhibits TTX-resistant NaV

Substance: mambalgin-1: snake toxin from Dendroaspis polylepis (LKCYQHGKVVTCHRDMKFCYHNTGMPFRNLKLILQGCSSSCSETENNKCCSTDRCNK; UniProt P0DKR6 22-78, looked up)
- effect on ASIC1a gating state (ASIC1a): stabilize the closed channels state

Substance: GTPCDCYGYTGVYWFMLSRCPSGYGYNLSCHYFMGICCVKR (disulfide 4-37, 6-30, 20-38) [Hcr 1b-4]
- IC50 (rat ASIC1a channel): 1250 ± 40 nM
- A (response value at maximal inhibition, % of control), rASIC1a (rat ASIC1a channel): 13.7 ± 0.8%
- EC50 (rat ASIC3 channel [1]; X. laevis oocytes, pH drop 7.8 to 4.0 (legend of Figure 4: from 7.4), potentiation, read-out: EC50, potentiation of transient rASIC3 current): 1530 ± 70 nM
- A, rASIC3 potentiation (rat ASIC3 channel [1]; fit parameter, pH drop to 4.0): 207.78 ± 1.56%

Substance: PcTx1: spider toxin from Psalmopoeus cambridgei (EDCIPKWKGCVNRHGDCCEGLECWKRRRSFEVCVPKTPKT; ends and bridges not checked; cysteine pairing not given here; UniProt P60514 1-40, looked up)
- effect on ASIC1b current (ASIC1b): potentiate ASIC1b
- effect on ASIC1a gating state (ASIC1a): promote desensitization of ASIC1a
- neuroprotection [2]: effective neuroprotectors

Substance: APETx2: toxin from sea anemone Anthopleura elegantissima, ASIC3 inhibitor (GTACSCGNSKGIYWFYRPSCPTDRGYTGSCRYFLGTCCTPAD; UniProt P61542 1-42, looked up)
- IC50 (hERG): 1210 ± 50 nM
- IC50 (NaV1.2): 114 ± 25 nM
- effect on ASIC1b current (ASIC1b): potentiate ASIC1b
- effect on ASIC2a current (ASIC2a): potentiate ASIC1b and ASIC2a currents
- effect on ASIC1a current (ASIC1a): no effect
- IC50 (NaV1.8): 55 ± 10 nM
- IC50 (rat ASIC3 channel [3]): 63 nM
- IC50 (human ASIC3): 175 nM
- theoretical pI [4]: 9.33
- IC50 (ASIC3; species not given, read-out: IC50, inhibition of ASIC3): 63 nM
- effect on ASIC3 sustained component (ASIC3; sustained current): no effect

Substance: GTPCKCHGYIGVYWFMLAGCPDGYGYNLSCPYFLGICCVKK (disulfide 4-37, 6-30, 20-38) [Hcr 1b-3]
- inhibition at 120 µM (rat ASIC1a channel; Hcr 1b-3 at 120 μM, Hcr 1b-4 from concentration–response relationship, read-out: maximal inhibition of ASIC1a current): 70%
- IC50 (rat ASIC1a channel): 4950 ± 190 nM
- A (response value at maximal inhibition, % of control), rASIC1a (rat ASIC1a channel): 30.3 ± 0.7%
- IC50 (rat ASIC3 channel [1]; X. laevis oocytes, pH drop 7.8 to 4.0 (legend of Figure 4: from 7.4), logistic fit, read-out: IC50, inhibition of transient rASIC3 current): 17000 ± 5800 nM
- A (response value at maximal inhibition, % of control), rASIC3 (rat ASIC3 channel [1]; fit parameter, pH drop to 4.0): 26 ± 7%
